Source: PMC4521925, “17β-Hydroxysteroid Dehydrogenase Type 2 Inhibition: Discovery of Selective and Metabolically Stable Compounds Inhibiting Both the Human Enzyme and Its Murine Ortholog” (PLoS ONE, 2015)

Columns and labels:
m17β-HSD2 = target: T1, m17β-HSD2 (Mus musculus, UniProt P51658); assay: Inhibition of m17β-HSD2 in cell-free assay; assay type: biochemical
T1 construct: The microsomal fraction (m17β-HSD2) was obtained from mouse liver as described for h17β-HSD2; tissue Pharmacelsus GmbH (mouse livers); host or cells: mouse liver, microsomal fraction
T1 sequence (P51658 1-381): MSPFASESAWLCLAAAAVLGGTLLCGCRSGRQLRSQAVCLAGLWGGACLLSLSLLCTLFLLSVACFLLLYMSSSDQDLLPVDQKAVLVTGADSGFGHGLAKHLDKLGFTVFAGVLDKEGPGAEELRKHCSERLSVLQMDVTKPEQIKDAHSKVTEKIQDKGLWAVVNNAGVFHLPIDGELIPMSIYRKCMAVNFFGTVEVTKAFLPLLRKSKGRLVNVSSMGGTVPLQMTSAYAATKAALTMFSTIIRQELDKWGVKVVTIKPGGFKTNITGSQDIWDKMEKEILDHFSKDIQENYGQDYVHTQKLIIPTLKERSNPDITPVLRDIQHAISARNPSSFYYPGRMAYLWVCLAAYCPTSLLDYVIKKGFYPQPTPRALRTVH
Method in brief: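 Mouse liver microsomal enzyme incubated with tritiated substrate, NAD+ [1500 μM] and inhibitor at 37 °C in 50 mM phosphate buffer with 20% glycerol, 1 mM EDTA, 1% DMSO final. Stopped after 20 min with HgCl2, steroids ether-extracted and quantified by HPLC radioflow detection; at least two independent experiments.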

h17β-HSD1 = target: T2, h17β-HSD1 (Homo sapiens, UniProt P14061); assay: Inhibition of h17β-HSD1 in cell-free assay; assay type: biochemical; conditions: human placental cytosolic fraction, substrate E1 [500 nM], cofactor NADH [500 μM]
T2 construct: h17β-HSD1 was obtained after precipitation with ammonium sulfate from the cytosolic fraction; from tissue; host or cells: human placenta, cytosolic fraction
T2 sequence (P14061 1-328): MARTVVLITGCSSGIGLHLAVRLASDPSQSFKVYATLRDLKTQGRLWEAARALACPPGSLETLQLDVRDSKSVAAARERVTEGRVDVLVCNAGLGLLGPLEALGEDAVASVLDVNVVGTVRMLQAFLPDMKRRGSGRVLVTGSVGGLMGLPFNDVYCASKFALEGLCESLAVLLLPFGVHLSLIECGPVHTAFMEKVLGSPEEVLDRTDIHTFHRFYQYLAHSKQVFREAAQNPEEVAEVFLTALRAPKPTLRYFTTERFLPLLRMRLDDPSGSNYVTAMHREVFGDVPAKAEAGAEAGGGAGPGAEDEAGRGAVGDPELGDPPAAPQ
Method in brief: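 Cytosolic enzyme from human placenta, ammonium sulfate-precipitated, incubated with 500 μM NADH, test compound and unlabelled plus [3H]-E1 (500 nM final) for 10 min at 37°C. Steroids separated by HPLC with radiodetection to quantify conversion.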

ERβ = ERβ (Homo sapiens, UniProt Q92731); assay: Estrogen receptor affinity in a cell-free assay (ERβ); assay type: binding; conditions: 1000-fold excess relative to E2; recombinant human ERβ
Chain of ERβ (Q92731 whole entry): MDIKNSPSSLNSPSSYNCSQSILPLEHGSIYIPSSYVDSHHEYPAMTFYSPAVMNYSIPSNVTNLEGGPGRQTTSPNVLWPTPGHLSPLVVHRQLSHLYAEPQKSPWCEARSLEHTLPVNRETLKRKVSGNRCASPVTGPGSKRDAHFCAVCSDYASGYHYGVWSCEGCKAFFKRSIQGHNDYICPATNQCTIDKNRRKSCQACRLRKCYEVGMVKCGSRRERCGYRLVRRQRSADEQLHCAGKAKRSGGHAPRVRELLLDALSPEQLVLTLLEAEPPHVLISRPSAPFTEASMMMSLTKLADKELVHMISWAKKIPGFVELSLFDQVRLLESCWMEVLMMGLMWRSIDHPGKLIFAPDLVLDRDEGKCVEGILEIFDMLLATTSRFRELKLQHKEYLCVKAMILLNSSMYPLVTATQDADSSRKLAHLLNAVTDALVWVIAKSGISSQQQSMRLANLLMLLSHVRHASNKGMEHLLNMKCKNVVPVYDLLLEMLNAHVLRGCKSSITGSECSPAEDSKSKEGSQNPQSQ
Procedure: The binding affinity of selected compounds to ERα and ERβ was determined according to the recommendations of the US Environmental Protection Agency (EPA) by their Endocrine Disruptor Screening Program (EDSP)[24] using recombinant human proteins.
The potential inhibitors were dissolved in DMSO (5% final concentration). […] After incubation, ligand-receptor complexes were selectively bound to hydroxyapatite (83.5 g/LinTE-buffer). The bound complex was washed three times and resuspended in ethanol. For radiodetection, scintillator cocktail (Quickszint 212, Zinsser Analytic, Frankfurt) was added and samples were measured in a liquid scintillation counter (1450 LSC & Luminescence Counter, Perkin Elmer).
After the assay was established and validated, a modification was made to increase throughput.

h17β-HSD2 = target: T3, h17β-HSD2 (Homo sapiens, UniProt P37059); assay: Inhibition of h17β-HSD2 in a cellular assay (MDA-MB-231); assay type: cell-based; conditions: MDA-MB-231 cell line, substrate E2 [200 nM], 6 h; for inhibition at 0.25 µM: MDA-MB-231, 250 nM, read-out: % inh HSD2 at 250 nM; for inhibition at 1.25 µM: MDA-MB-231, 1250 nM, read-out: % inh HSD2 at 1250 nM
T3 sequence (P37059 1-387): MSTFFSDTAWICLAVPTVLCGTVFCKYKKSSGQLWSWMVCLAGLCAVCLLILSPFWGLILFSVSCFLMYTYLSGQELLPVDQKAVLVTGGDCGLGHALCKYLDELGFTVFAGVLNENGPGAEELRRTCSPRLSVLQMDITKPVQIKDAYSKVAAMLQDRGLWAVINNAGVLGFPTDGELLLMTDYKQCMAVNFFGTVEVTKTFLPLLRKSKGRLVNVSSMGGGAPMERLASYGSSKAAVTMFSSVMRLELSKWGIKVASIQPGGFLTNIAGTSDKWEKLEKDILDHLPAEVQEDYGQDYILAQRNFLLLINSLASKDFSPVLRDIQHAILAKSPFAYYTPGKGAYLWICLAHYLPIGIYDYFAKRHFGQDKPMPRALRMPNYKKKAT
Procedure: Cellular h17β-HSD2 inhibitory activity is measured using the breast cancer cell-line MDA-MB-231[32] (17β-HSD1 activity negligible). [^3H]-E2 (200 nM) is taken as substrate and is incubated with the inhibitor for 6 h at 37°C. After ether extraction, substrate and product are separated by HPLC and detected with a radioflow detector. Potency is evaluated as percentage of inhibition (inhibitor concentrations used: 1250 nM and 250 nM).

Compound	inhibition at 1 µM (m17β-HSD2; read-out: % inh. at 1 μM m17β-HSD2) [%]	IC50 (h17β-HSD1) [µM]	displacement of E2 from ERβ (ERβ) [%]	IC50 (m17β-HSD2) [µM]	inhibition at 0.25 µM (h17β-HSD2) [%]	inhibition at 1.25 µM (h17β-HSD2) [%]
Cc1cccc(N(C)C(=O)c2ccc(-c3cccc(C)c3F)cc2)c1 [Compound 21a, 2'-Fluoro-N,3'-dimethyl-N-(m-tolyl)-[1,1'-biphenyl]-4-carboxamide]	56	3.71	≤ 20	–	–	–
Cc1cccc(-c2ccc(C(=O)N(C)Cc3cccc(O)c3)cc2)c1F [Compound 25, 2'-Fluoro-N-(3-hydroxybenzyl)-N,3'-dimethyl-[1,1'-biphenyl]-4-carboxamide]	–	31	≤ 20	0.19	67	~90
COc1cccc(N(C)C(=O)c2ccc(-c3ccc(C)c(C)c3)cc2)c1 [Compound 17a, N-(3-methoxyphenyl)-N,3',4'-trimethyl-[1,1'-biphenyl]-4-carboxamide]	–	13.3	≤ 20	0.14	66	~90
COc1cccc(N(C)C(=O)c2ccc(-c3cccc(C)c3)cc2)c1 [Compound 6a, N-(3-methoxyphenyl)-N,3'-dimethyl-[1,1'-biphenyl]-4-carboxamide]	–	6.4	≤ 20	0.26	60	~90
